Test results: patent US7699995B2, “Water treatment method” (priority 2006, dated 2010)

How the values were obtained:
[1] = Stability in buffered water at various pH and temperatures (HPLC); type: physicochemical
Experimental: Biocides were added to buffer solutions and stability was tested at 22° and 50° C. using HPLC to measure biocide concentration at 0 time, 21 days, 43 days, and 88-90 days. Biocide stability was determined in the following buffer solutions: pH2, 0.01M HCl; pH6, 0.1M KH2PO4; pH8, 0.025M borate; pH10, 0.025M borate; pH12, 0.05M Na2HPO4. Biocide concentrations tested were 100 ppm MI, 200 ppm BIT, 44 ppm CMI.

[2] = Stability with oxidizing and reducing agents at pH 7 and pH 9 (HPLC); type: physicochemical
Experimental: Oxidizing agents (2 mM) included hydrogen peroxide (H2O2; 68 ppm), t-butyl hydrogen peroxide (t-BHP; 180 ppm), and potassium persulfate (K2O8S2; 540 ppm). Reducing agents (2 mM) included iso-ascorbic acid (IAA; 352 ppm) and sodium bisulfite (NaHSO3; 208 ppm). Biocides were tested at 1 mM concentrations, representing 115 ppm MI and […].
The pH 7.0 buffer contained 0.00426% monopotassium phosphate plus 0.019% magnesium chloride hexahydrate. The pH 9.0 buffer contained 0.0046 M hydrochloric acid plus 0.013 M borax. Stock solutions of the redox agents were prepared and added to aliquots of each buffer to give 2 mM concentrations. The biocides were then added to give 1 mM concentrations. The samples were stored at 25° C. and analyzed for biocide level by HPLC at 0, 2 and 8 days.

Aspergillus sp. #120 = experiment: MIC at pH 7.1 or pH 9.0, half strength TSB; type: cell-based; settings: three days
Experimental: (§1) Minimum inhibitory concentration (MIC) studies were conducted to determine the lowest level of biocide required to inhibit growth of bacteria and fungi. Tests were conducted in 96-well microtiter plates. Biocides were added to growth media in the plates and serially diluted to obtain a range of concentrations. Tests were conducted in one-half strength trypticase soy broth (TSB; adjusted to pH 7.1 or pH 9.0). Bacteria and fungi were added to samples at 10^6 colony forming units per ml and incubated at 30° C. for three days. MIC values were determined visually on a growth no-growth basis.

[3] = test system: Pseudomonas aeruginosa #13; experiment: MIC at pH 7.1 or pH 9.0, half strength TSB; type: cell-based; settings: three days
Experimental: as §1

Streptomyces sp. #130 = experiment: MIC at pH 7.1 or pH 9.0, half strength TSB; type: cell-based; settings: three days
Experimental: as §1

[4] = test system: Alcaligenes xylosoxydans #95; experiment: MIC at pH 7.1 or pH 9.0, half strength TSB; type: cell-based; settings: three days
Experimental: as §1

Aspergillus niger #128 = experiment: MIC at pH 7.1 or pH 9.0, half strength TSB; type: cell-based; settings: three days
Experimental: as §1

[5] = test system: Pseudomonas pseudoalcaligenes #15; experiment: MIC at pH 7.1 or pH 9.0, half strength TSB; type: cell-based; settings: three days
Experimental: as §1

Pseudomonas diminuta #99 = experiment: MIC at pH 7.1 or pH 9.0, half strength TSB; type: cell-based; settings: three days
Experimental: as §1

Rhodotorula rubra #156 = experiment: MIC at pH 7.1 or pH 9.0, half strength TSB; type: cell-based; settings: three days
Experimental: as §1

Alcaligenes faecalis #93 = experiment: MIC at pH 7.1 or pH 9.0, half strength TSB; type: cell-based; settings: three days
Experimental: as §1

[6] = K-persulfate 2 mM, pH 7, 25° C.
[7] = K-persulfate 2 mM, pH 9, 25° C.
[8] = Na bisulfite 2 mM, pH 7, 25° C.
[9] = Na bisulfite 2 mM, pH 9, 25° C.

## O=c1[nH]sc2ccccc12 [BIT, 1,2-benzisothiazolin-3-one, reference compound]
[1]; 22° C., day 0
  Percent Remaining at: pH 2: 100%
  Percent Remaining at: pH 6: 100%
  Percent Remaining at: pH 8: 100%
  Percent Remaining at: pH 10: 100%
  Percent Remaining at: pH 12: 100%
[1]; 22° C., day 21
  Percent Remaining at: pH 2: 97%
  Percent Remaining at: pH 6: 100%
  Percent Remaining at: pH 8: 98%
  Percent Remaining at: pH 10: 100%
  Percent Remaining at: pH 12: 69%
[1]; 22° C., day 43
  Percent Remaining at: pH 2: 83%
  Percent Remaining at: pH 6: 86%
  Percent Remaining at: pH 8: 77%
  Percent Remaining at: pH 10: 85%
  Percent Remaining at: pH 12: 55%
[1]; 22° C., day 88
  Percent Remaining at: pH 2: 95%
  Percent Remaining at: pH 6: 100%
  Percent Remaining at: pH 8: 84%
  Percent Remaining at: pH 10: 96%
  Percent Remaining at: pH 12: 63%
[1]; 50° C., day 0
  Percent Remaining at: pH 2: 100%
  Percent Remaining at: pH 6: 100%
  Percent Remaining at: pH 8: 100%
  Percent Remaining at: pH 10: 100%
  Percent Remaining at: pH 12: 100%
[1]; 50° C., day 21
  Percent Remaining at: pH 2: 95%
  Percent Remaining at: pH 6: 100%
  Percent Remaining at: pH 8: 94%
  Percent Remaining at: pH 10: 100%
  Percent Remaining at: pH 12: 68%
[1]; 50° C., day 43
  Percent Remaining at: pH 2: 80%
  Percent Remaining at: pH 6: 88%
  Percent Remaining at: pH 8: 73%
  Percent Remaining at: pH 10: 81%
  Percent Remaining at: pH 12: 55%
[1]; 50° C., day 90
  Percent Remaining at: pH 2: 93%
  Percent Remaining at: pH 6: 100%
  Percent Remaining at: pH 8: 89%
  Percent Remaining at: pH 10: 95%
  Percent Remaining at: pH 12: 68%
[2]; H2O2 2 mM, pH 7, 25° C.
  % Remaining after 2 Days: 39%
  % Remaining after 8 Days: 15%
[2]; H2O2 2 mM, pH 9, 25° C.
  % Remaining after 2 Days: 8%
  % Remaining after 8 Days: 0%
[2]; IAA 2 mM, pH 7, 25° C.
  % Remaining after 2 Days: 89%
  % Remaining after 8 Days: 86%
[2]; IAA 2 mM, pH 9, 25° C.
  % Remaining after 2 Days: 77%
  % Remaining after 8 Days: 75%
[2]; [6]
  % Remaining after 2 Days: 0%
  % Remaining after 8 Days: 0%
[2]; [7]
  % Remaining after 2 Days: 0%
  % Remaining after 8 Days: 0%
[2]; [8]
  % Remaining after 2 Days: 38%
  % Remaining after 8 Days: 28%
[2]; [9]
  % Remaining after 2 Days: 82%
  % Remaining after 8 Days: 77%
[2]; no redox agent, pH 7, 25° C.
  % Remaining after 2 Days: 100%
  % Remaining after 8 Days: 100%
[2]; no redox agent, pH 9, 25° C.
  % Remaining after 2 Days: 100%
  % Remaining after 8 Days: 100%
[2]; t-BHP 2 mM, pH 7, 25° C.
  % Remaining after 2 Days: 43%
  % Remaining after 8 Days: 8%
[2]; t-BHP 2 mM, pH 9, 25° C.
  % Remaining after 2 Days: 38%
  % Remaining after 8 Days: 6%
Aspergillus sp. #120; pH 7.1, 30° C.
  Minimum Inhibitory Concentration: 50 ppm
Aspergillus sp. #120; pH 9.0, 30° C.
  Minimum Inhibitory Concentration: 400 ppm
[3]; pH 7.1, 30° C.
  Minimum Inhibitory Concentration: 50 ppm
[3]; pH 9.0, 30° C.
  Minimum Inhibitory Concentration: 200 ppm
Streptomyces sp. #130; pH 7.1, 30° C.
  Minimum Inhibitory Concentration: <1.6 ppm
Streptomyces sp. #130; pH 9.0, 30° C.
  Minimum Inhibitory Concentration: 3.2 ppm
[4]; pH 7.1, 30° C.
  Minimum Inhibitory Concentration: 6.3 ppm
[4]; pH 9.0, 30° C.
  Minimum Inhibitory Concentration: 25 ppm
Aspergillus niger #128; pH 7.1, 30° C.
  Minimum Inhibitory Concentration: 50 ppm
Aspergillus niger #128; pH 9.0, 30° C.
  Minimum Inhibitory Concentration: 200 ppm
[5]; pH 7.1, 30° C.
  Minimum Inhibitory Concentration: 12.5 ppm
[5]; pH 9.0, 30° C.
  Minimum Inhibitory Concentration: 25 ppm
Pseudomonas diminuta #99; pH 7.1, 30° C.
  Minimum Inhibitory Concentration: 3.2 ppm
Pseudomonas diminuta #99; pH 9.0, 30° C.
  Minimum Inhibitory Concentration: 12.5 ppm
Rhodotorula rubra #156; pH 7.1, 30° C.
  Minimum Inhibitory Concentration: <6.3 ppm
Rhodotorula rubra #156; pH 9.0, 30° C.
  Minimum Inhibitory Concentration: 100 ppm
Alcaligenes faecalis #93; pH 7.1, 30° C.
  Minimum Inhibitory Concentration: <1.6 ppm
Alcaligenes faecalis #93; pH 9.0, 30° C.
  Minimum Inhibitory Concentration: 6.3 ppm
